Source: ChEMBL document CHEMBL1138810, “Studies of targeting and intracellular trafficking of an anti-androgen doxorubicin-formaldehyde conjugate in PC-3 prostate cancer cells bearing androgen receptor-GFP chimera” (J Med Chem, 2004)

biological target: T1, Androgen receptor (Homo sapiens, UniProt P10275); test: Inhibition of [3H]mibolerone binding to human Androgen receptor of PC3/AR Cell Lysate
T1 sequence (P10275 whole entry): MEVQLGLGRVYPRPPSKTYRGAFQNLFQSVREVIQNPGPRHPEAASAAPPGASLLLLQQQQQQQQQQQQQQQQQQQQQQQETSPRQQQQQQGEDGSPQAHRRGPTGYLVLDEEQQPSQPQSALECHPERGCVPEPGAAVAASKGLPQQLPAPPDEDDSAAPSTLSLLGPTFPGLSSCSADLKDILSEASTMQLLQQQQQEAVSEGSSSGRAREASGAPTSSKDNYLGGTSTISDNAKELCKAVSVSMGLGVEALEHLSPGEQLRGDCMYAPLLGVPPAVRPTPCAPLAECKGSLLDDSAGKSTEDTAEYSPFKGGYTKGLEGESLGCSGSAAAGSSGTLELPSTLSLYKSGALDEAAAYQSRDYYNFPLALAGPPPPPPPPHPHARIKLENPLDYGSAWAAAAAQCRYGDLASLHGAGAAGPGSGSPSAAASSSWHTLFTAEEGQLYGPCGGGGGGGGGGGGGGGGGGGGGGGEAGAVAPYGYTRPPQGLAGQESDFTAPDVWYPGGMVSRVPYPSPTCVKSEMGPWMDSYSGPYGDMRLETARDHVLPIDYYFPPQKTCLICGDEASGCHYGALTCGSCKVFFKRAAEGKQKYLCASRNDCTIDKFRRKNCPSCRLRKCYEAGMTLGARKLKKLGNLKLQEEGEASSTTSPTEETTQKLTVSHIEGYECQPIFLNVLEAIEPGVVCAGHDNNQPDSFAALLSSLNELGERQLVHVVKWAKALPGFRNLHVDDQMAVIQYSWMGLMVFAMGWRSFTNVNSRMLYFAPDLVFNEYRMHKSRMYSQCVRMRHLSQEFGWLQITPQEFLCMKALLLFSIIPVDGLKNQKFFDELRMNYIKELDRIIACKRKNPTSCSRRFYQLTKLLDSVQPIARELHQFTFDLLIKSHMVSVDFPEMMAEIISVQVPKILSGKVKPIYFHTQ

IC50	SMILES
332 nM	CC1(C)C(=O)N(c2ccc(C#N)c(C(F)(F)F)c2)C(=O)N1OCCOCCOCCCc1ccc(O)c(C(N)=O)c1
63 nM	CCCC(=O)Oc1ccc(COCC#CCN2C(=O)N(c3ccc(C#N)c(C(F)(F)F)c3)C(=O)C2(C)C)cc1C(=O)NCN[C@H]1CC(OC2C[C@](O)(C(=O)CO)Cc3c(O)c4c(c(O)c32)C(=O)c2c(OC)cccc2C4=O)O[C@@H](C)[C@H]1O (some centres undefined)
90 nM	COc1cccc2c1C(=O)c1c(O)c3c(c(O)c1C2=O)C[C@@](O)(C(=O)CO)CC3OC1C[C@H](NCNC(=O)c2cc(COCC#CCN3C(=O)N(c4ccc(C#N)c(C(F)(F)F)c4)C(=O)C3(C)C)ccc2O)[C@H](O)[C@H](C)O1 (some centres undefined)

SMILES	IC50
CC1(C)C(=O)N(c2ccc(C#N)c(C(F)(F)F)c2)C(=O)N1OCC#CCCc1ccc(O)c(C(N)=O)c1	49 nM
